Paper PMC8398231 (Pharmaceutics, 2021)

Tests used:
[1] = target: T1, GRP-R (Homo sapiens, UniProt P30550); test: Intracellular calcium mobilization assay in PC-3 cells; assay type: cell-based; details: fluo-8AM, 10^-11 M to 10^-5 M, room temperature, pH 7.4
T1 construct: higher uptake in GRP-R-expressing PC-3 cells; endogenous in cells; host or cells: PC-3 cells
Procedure: For calcium imaging assays, PC-3 cells were cultured as previously described. The day before the experimentation, cells were grown on 15 mm Thermanox® glass slides (Thermofischer, Waltham, MA, USA,) in 6-wells plates at the density of 5.10^5 cells in 500 µL culture medium. Glass slides were individually loaded for 30 min in dark into 500 µL loading solution containing 10 µL fluo-8AM, 10 µL pluronic acid, 50 µL probenecid and 430 µL DMEM/F12 medium. […] A 10-min delay was applied to remove extracellular fluo-8AM and to enable fluo-8AM intracellular hydrolysis. Growing concentrations (10^−11 M to 10^−5 M) of [^natGa]Ga-RM2 were added via a rapid perfusion system.

[2] = Lipophilicity, water-octanol partition/distribution coefficient method; assay type: physicochemical; details: 1-octanol/phosphate buffered saline; shake-flask 1-octanol/PBS pH 7.4 (500 µL each), 3.7 MBq, stirred 5 min at room temperature, centrifuged, gamma counter, decay-corrected; three experiments in triplicate, mean ± SD
Procedure: The lipophilicity of the [^68Ga]Ga-RM2 was assessed by the water-octanol partition/distribution coefficient method. In a centrifuge tube 500 µL of 1-octanol was added to 500 µL of phosphate buffered saline (pH 7.4) containing the radiolabeled peptide (3.7 MBq; ≈10 µL). After equilibrium, the solution was vigorously stirred for 5 min at room temperature and subsequently centrifuged (4000 rpm, 3 min) to yield two immiscible layers. Aliquots of 100 µL were taken from each layer and the radioactivity in the samples was determined by a gamma counter (Gamma Wizard2 Counter 2480; Perkin Elmer, Villebon sur Yvette, France; acquisition time of one minute, energy window centered on the peak of 511 keV). The Log D7.4 was determined by the Log ratio (cpm (counts per minute) organic phase/cpm aqueous phase). The cpm values were decay-corrected. Experiments were performed three times in triplicates.

[3] = tested on: PC-3 cells; test: Cellular efflux of internalized radioactivity from PC-3 cells; assay type: cell-based
Procedure: For in vitro experiments, PC-3 cells were cultured in DMEM/F12 and seeded in 6-well plates at a density of 10^6 cells per well 18 h before carrying out the experiments and incubated overnight with complete medium.
Three minutes before the end of the incubation time, internalization was stopped by removing medium and washing cells with ice-cold PBS. The membrane-bound fraction was removed by rinsing cells with 2 mL acetate buffer (pH = 5; 20 mM) for 2 min and cells were then rinsed ice-cold PBS. Next, 2 mL of complete medium was then added to each well, and PC-3 cells were incubated at 37 °C for 5, 15, 30 and 45 min. At each time point, efflux was stopped by removing medium and cells were rinsed twice with ice-cold PBS. Finally, the cells were treated with 1M NaOH and the radioactivity was measured using a gamma counter.

[4] = Stability of radiolabeled kit in vehicle (radiochemical purity over time); assay type: physicochemical; details: final formulation (acetate buffer, PBS, 0.9% NaCl)
Procedure: For process validation, the [^68Ga]Ga-RM2 kits were subjected to full quality control. […] Molar activity was calculated after linear regression of the calibration curve with [^natGa]Ga-RM2 (Life Molecular Imaging). The pH was determined using a pH-meter. Volumetric activity was determined by dividing activity obtained by the final volume. The [^68Ga]Ga-RM2 was also subjected to endotoxin testing (Charles Rivers), sterility testing and radionuclidic purity and filter integrity tests. Results were then compared to the production capacity provided by the module route currently running in our NCT03604757 and NCT03606837 studies.
After optimization, ^68Ga radiolabeling of the RM2 kits was carried out in three consecutive batches, and they all complied with the requirements of the monograph of the European Pharmacopoeia (as described for [^68Ga]Ga-edotreotide) (Figure 4 and Table 1). The evolution of the radiochemical purity over time was also checked.

[5] = tested on: PC-3; details: other kit formulation without scavenger and bulking agent; cited from earlier work
From the text: Another kit formulation of RM2 has been developed but without a scavenger and a bulking agent for lyophilization. […] Therefore, our innovative formulation provides longer stability at higher temperature and higher uptake in GRP-R-expressing PC-3 cells.

T1 sequence (P30550 whole entry): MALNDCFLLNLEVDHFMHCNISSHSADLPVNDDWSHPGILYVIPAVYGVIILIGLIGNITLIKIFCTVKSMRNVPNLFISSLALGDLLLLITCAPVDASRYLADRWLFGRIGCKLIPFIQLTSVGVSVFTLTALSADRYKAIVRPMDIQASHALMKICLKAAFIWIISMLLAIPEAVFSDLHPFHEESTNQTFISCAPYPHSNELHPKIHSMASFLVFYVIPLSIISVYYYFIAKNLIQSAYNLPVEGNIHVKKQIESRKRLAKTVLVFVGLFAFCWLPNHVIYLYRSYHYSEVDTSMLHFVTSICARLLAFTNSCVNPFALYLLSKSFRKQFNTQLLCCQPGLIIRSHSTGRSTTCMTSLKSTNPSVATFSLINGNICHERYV

Molecule | Intracellular calcium mobilization (ΔF/F) [1] | logD [2] | Efflux of the internalized activity ([3]; 30 min internalization at 37 °C, acid wash, then 5 min at 37 °C in complete medium) | Efflux (%) ([3]; 45 min post-internalization at 37 °C) | Stability in vehicle (radiochemical purity over time) [4] | Specific uptake in PC-3 (% of cell-associated radioactivity) [5]
bombesin | effectively induced calcium mobilization in a dose-dependent manner | – | – | – | – | –
CC(C)C[C@H](NC(=O)C[C@H](O)[C@H](CC(C)C)NC(=O)[C@H](Cc1c[nH]cn1)NC(=O)CNC(=O)[C@@H](NC(=O)[C@H](C)NC(=O)[C@H](Cc1c[nH]c2ccccc12)NC(=O)[C@H](CCC(N)=O)NC(=O)[C@@H](Cc1ccccc1)NC(=O)CN1CCC(NC(=O)CN2CCN(CC(=O)O)CCN(CC(=O)O)CCN(CC(=O)O)CC2)CC1)C(C)C)C(N)=O [[^68Ga]Ga-RM2, metal not drawn] | – | -2.54 ± 0.04 | 64.3 ± 6.5% | 70.8 ± 11.1% | stable in vehicle up to 3 h | 5%
